Values quoted from earlier work, collected in patent US8703753B2, “Use of tellurium compounds for the treatment of actinic keratosis” (Biomas Ltd., priority 2005, dated 2014).
Read-outs that look alike come from different tables or passages of the source.

Tests used:
[1] = rats, intravenous and intramuscular administration
interferon (IFN) [2] = conditions: humans
interferon (IFN) [3] = conditions: mice

Cl[TeH]1(Cl)(Cl)OCCO1.N [AS101, ammonium trichloro(dioxyethylene-O,O′)tellurate]
LD50 relative to the immunologically effective dose [1]: 500-1000 folds | activation of interferon (IFN) (interferon (IFN) [2]): potent activator | effect on IL-10 at the m-RNA level (IL-10): inhibit IL-10 | activation of interferon (IFN) (interferon (IFN) [3]): potent activator
